From patent US6878751B1, “Administration of resveratrol to treat inflammatory respiratory disorders” (Imperial College of Science Technology and Medicine, priority 2000, dated 2005) come the findings set out here.

Molecules are shown by their SMILES.

For data set [1], the system named is GM-CSF release, A549 cells. Put plainly: GM-CSF release (sandwich assay) in IL-1β stimulated A549 cells. The class given is cell-based. The conditions noted are these: Homo sapiens, 1 ng/ml IL-1β, read-out: EC50 for inhibition of GM-CSF release. On the procedure:
The human airway epithelial cell line A549 may be employed to study resveratrol inhibition of the release of IL-8 (interleukin 8) and GM-CSF (granulocyte macrophage-colony stimulating factor) by a 1 ng/ml stimulation with IL-1β (interleukin 1β). A549 cells, BEAS-2B cells and 16HBE-16o^− cells were stimulated with 1 ng/ml levels of IL-1β in the presence of resveratrol.
Cells, including the A549 cells, were cultured in Dulbecco's modified Eagle's medium (DMEM) 10% (v/v) fetal calf serum (FCS), 100 μg/ml penicillin and 100 μg/ml streptomycin. IL-8 release was measured by commercially available ELISA kit (R&D Systems).
GM-CSF release was measured in culture media by sandwich assay employing rat monoclonal capture antibody (Ab, mAb) against GM-CSF and a biotinylated rat anti-human GM-CSF mAb. The rat capture mAb against GM-CSF, diluted 1:500 in 0.1 M NaHCO3, was coated overnight at 4° C. onto 96 well plates. After washing, with wash buffer (NaCl: 145 mM, KCl: 4 mM, NaH2PO4: 10 mM, Tween-20: 0.05% (v/v), pH: 7.4) the plates were blocked by application of 10% (v/v) FCS at room temperature for 2 hours. After washing, samples and standards were added to the well plates and incubated at 4° C. overnight. […]

The subject of data set [2] is NF-κB dependent transcription. Put plainly: NF-κB luciferase reporter in stably transfected A549 cells. The class given is cell-based, human. Here is the method:
The expression of inflammatory genes was then evaluated in cells transformed with luciferase reporter genes containing sites for transcription factors (Tf, Tfs). The A549 cells were stably transfected by routine methods with luciferase reporters containing the transcription factors NF-κB, TRE (AP-1, TPA responsive element) and CRE (cAMP responsive element). Luciferase activity of cell lysates resuspended in […] cell lysis buffer mixed (40 mml resuspended lysate: 40 mml assay reagent) was measured using the Luciferase Assay System (Promega), with emitted light measured by a Turner DesignsTD-20/20 luminometer (Steptech Instruments Ltd., Stevenage, U.K.)
In general terms: Reporter assays use an easily measured gene product as a stand-in for the process of interest.

Data set [3] concerns Individuals at risk for ILD. Put plainly: Oral resveratrol for chemoprevention of ILD in individuals at risk (Example 11). The class given is in vivo, human. The conditions noted are these: 2 to 5 years. Here is the method:
Resveratrol is evaluated clinically for efficacy in chemoprevention of ILD in smokers. The study is generally patterned after the COPD chemoprevention study (Example 10) with modifications appropriate to the clinical and histopathologic evaluation of ILD, and the references listed in the preceding examples may be applied as appropriate. Individuals at risk with no disease or mild COPD are treated once or more per day with gelatin capsules containing resveratrol. A population of individuals at risk for a specific ILD, such as silicosis can be studied, or several such populations such as sand blasters (silicosis) and coal miners can be studied in parallel The different populations are subdivided into subpopulations: clinically and histopathologically disease free, clinically asymptomatic with histopathologic inflammation and mildly ILD symptomatic, meaning some fibrosis but no pulmonary impairment causing hypoxemia or acidosis. […] Patients are medically monitored for clinical symptoms of ILD throughout the study, including onset of symptoms and frequency and severity thereof. […] Forced expiratory volume (FEV) and forced inspiratory volume (FIV) are also evaluated to measure airway patency as a direct measure of clinical morbidity and to determine correlation the histopathologic and other indicators of clinical disease. […]

In another data set the test system is Patients with asthma. Description: Pulmonary resveratrol clinical evaluation in asthma (Example 4). The note with it: inhaled, 4, 8 or 20 mg/day, about six months. The class given is in vivo, human. On the procedure: Resveratrol is evaluated clinically for efficacy in treating asthma when administered pulmonarily. The methods of the following references are generally used in the evaluation of asthmatic disease: Wohl et al. (2000) N. Engl. J. Med. 343(15):1113-4; Agertoft et al. (2000) N. Engl. J. Med 343(15):1064-9. Patients with asthma are treated once or more per day with inhalator delivered pulmonary administered doses of resveratrol. Patients are divided randomly and blindly into approximately equal groups that receive either 0 (placebo), 4, 8, or 20 mg/day resveratrol in inhaled doses of 0, 1, 2, or 5 mg administered 4 times daily for about six months. Patients are medically monitored for clinical symptoms of asthma throughout the study, including frequency and severity of acute asthma attacks. […] In addition exhaled nitric oxide (NO) and carbon monoxide (CO) levels may be measured at more frequent intervals, such as every other week. Forced expiratory volume (FEV) and forced inspiratory volume (FIV) are also evaluated to measure airway patency as a direct measure of clinical morbidity and to determine correlation the histopathologic and other indicators of clinical disease, such as exhaled NO Immunhistopathologic examination of lung tissue biopsy samples taken at the same intervals as the blood samples are also examined for histopathologic evidence of extent and histology of inflammation.

In general, EC50 refers to the concentration needed to bring the measured effect to its halfway point. With `Oc1ccc(/C=C/c2cc(O)cc(O)c2)cc1` [Resveratrol, 3,5,4′-trihydroxystilbene], the half-maximal effective concentration (EC50) in data set [1] amounted to 22 ± 8 µM; in data set [2] (Homo sapiens, read-out: EC50 for inhibition of NF-κB dependent transcription) it was 21 ± 7 µM. For the same compound, in data set [2], the “extent of inhibition of NF-κB dependent transcription” value is “completely”. Besides, in data set [3] (oral, relative to those expected from steroid administration), the side effects entry was “without significant side effects”. For the same compound, the “efficacy in chemoprevention of ILD” value in data set [3] (oral, 200, 2000 or 3000 mg/day) is on record as “effective for chemoprevention of ILD”. Further, the “efficacy in treating asthma” value in the data set with Patients with asthma is given as “effective for treating asthma”.
